One test concerns brain cells (neurons). The following applies: preclinical models of Alzheimer's disease and Huntington's disease; cited from earlier work.
The subject of test [1] is cells treated with the cell toxin ionomycin. The note with it: cited from earlier work.
For test [2], the system named is neurite outgrowth and neurogenesis. The note with it: cited from earlier work.
For test [3], the target named is T1, human recombinant histamine H1 receptor (Homo sapiens, UniProt P35367).
T1 construct: expressed in transfected cells; host or cells: CHO cells
T1 sequence (P35367 whole entry): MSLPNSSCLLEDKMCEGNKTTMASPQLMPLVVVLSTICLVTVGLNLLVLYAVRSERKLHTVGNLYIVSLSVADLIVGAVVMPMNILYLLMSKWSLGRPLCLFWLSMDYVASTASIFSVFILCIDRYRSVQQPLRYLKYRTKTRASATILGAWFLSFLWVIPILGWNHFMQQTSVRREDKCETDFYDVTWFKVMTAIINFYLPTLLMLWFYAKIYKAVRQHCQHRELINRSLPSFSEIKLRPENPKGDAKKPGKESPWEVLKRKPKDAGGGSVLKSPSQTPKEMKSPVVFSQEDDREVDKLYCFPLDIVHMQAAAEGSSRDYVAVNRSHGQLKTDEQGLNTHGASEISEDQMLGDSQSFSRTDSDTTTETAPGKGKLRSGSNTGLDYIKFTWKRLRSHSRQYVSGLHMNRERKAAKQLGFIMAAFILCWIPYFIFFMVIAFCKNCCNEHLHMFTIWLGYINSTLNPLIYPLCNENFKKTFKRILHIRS
Put plainly: Histamine H1 radioligand binding ([3H]Pyrilamine). The note with it: compound at 1 μM; read-out: Histamine Binding (1 μM) H1, percent inhibition of specific binding. As for the experimental part:
To evaluate in radioligand binding assays the activity of compounds of the invention, human recombinant histamine H1 receptor expressed in Chinese hamster ovary (CHO) cells (De Backer, M. D. et al., Biochem. Biophys. Res. Comm. 197(3):1601, 1993) in a modified Tris-HCl buffer (50 mM Tris-HCl, pH 7.4, 2 mM MgCl2, 100 mM NaCl, 250 mM Sucrose) was used. Compounds of the invention were incubated with 1.2 nM [^3H]Pyrilamine for 180 min. at 25° C. Non-specific binding was estimated in the presence of 1 μM pyrilamine. Receptor proteins were filtered and washed, the filters were then counted to determine [^3H]Pyrilamine specifically bound. Compounds were screened at 1 μM or lower, using 1% DMSO as vehicle. Biochemical assay results are presented as the percent inhibition of specific binding in Table 6.

Test [4] deals with T2, human recombinant histamine H2 receptor (Homo sapiens, UniProt P25021).
T2 construct: expressed in transfected cells; host or cells: CHO-K1 cells
T2 sequence (P25021 whole entry): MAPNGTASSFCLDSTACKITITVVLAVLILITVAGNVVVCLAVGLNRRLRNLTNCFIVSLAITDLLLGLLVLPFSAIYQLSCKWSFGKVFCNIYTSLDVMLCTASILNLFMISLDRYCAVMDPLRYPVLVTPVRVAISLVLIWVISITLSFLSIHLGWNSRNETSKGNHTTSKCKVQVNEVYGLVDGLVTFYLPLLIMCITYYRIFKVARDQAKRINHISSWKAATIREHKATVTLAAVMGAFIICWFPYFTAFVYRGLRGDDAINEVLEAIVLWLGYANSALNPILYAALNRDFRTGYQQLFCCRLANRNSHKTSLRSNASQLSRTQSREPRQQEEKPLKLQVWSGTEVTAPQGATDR
Description: Histamine H2 radioligand binding ([125I]Aminopotentidine). The following applies: compound at 1 μM; read-out: Histamine Binding (1 μM) H2, percent inhibition of specific binding. As for the experimental part:
To evaluate in radioligand binding assays the activity of compounds of the invention, human recombinant histamine H2 receptor expressed in Chinese hamster ovary (CHO) K1 cells (Ruat, M., Proc. Natl. Acad. Sci. USA. 87(5):1658, 1990) in a 50 mM Phosphate buffer, pH 7.4 was used. Compounds of the invention were incubated with 0.1 nM [^125I]Aminopotentidine for 120 min. at 25° C. Non-specific binding was estimated in the presence of 3 μM Tiotidine. Receptor proteins were filtered and washed, the filters were then counted to determine [^125I]Aminopotentidine specifically bound. Compounds were screened at 1 μM or lower, using 1% DMSO as vehicle. Biochemical assay results are presented as the percent inhibition of specific binding in Table 6.

Test [5] addresses T3, human recombinant dopamine D2L receptor (Homo sapiens, UniProt P14416).
T3 construct: expressed in transfected cells; host or cells: CHO cells
Put plainly: Dopamine D2L radioligand binding ([3H]Spiperone). The following applies: compound at 1 μM; read-out: Dopamine (1 μM) D2L, percent inhibition of specific binding. As for the experimental part:
To evaluate in radioligand binding assays the activity of compounds of the invention, human recombinant dopamine D2L receptor expressed in Chinese hamster ovary (CHO) cells (Grandy, D. K. et al. Proc. Natl. Acad. Sci. USA. 86:9762, 1989; Hayes, G. et al., Mol. Endocrinol. 6:920, 1992) in a modified Tris-HCl buffer (50 mM Tris-HCl, pH 7.4, 1.4 mM Ascorbic Acid, 0.001% BSA, 150 mM NaCl) was used. Compounds of the invention were incubated with 0.16 nM [^3H]Spiperone for 120 min. at 25° C. Non-specific binding was estimated in the presence of 10 μM Haloperidol. Receptor proteins were filtered and washed, the filters were then counted to determine [^3H]Spiperone specifically bound. Compounds were screened at 1 μM or lower, using 1% DMSO as vehicle. Biochemical assay results are presented as the percent inhibition of specific binding in Table 5.

Test [6] deals with T4, human recombinant serotonin (5-Hydroxytryptamine) 5-HT2A receptor (Homo sapiens, UniProt P28223).
T4 construct: expressed in transfected cells; host or cells: CHO-K1 cells
T4 sequence (P28223 whole entry): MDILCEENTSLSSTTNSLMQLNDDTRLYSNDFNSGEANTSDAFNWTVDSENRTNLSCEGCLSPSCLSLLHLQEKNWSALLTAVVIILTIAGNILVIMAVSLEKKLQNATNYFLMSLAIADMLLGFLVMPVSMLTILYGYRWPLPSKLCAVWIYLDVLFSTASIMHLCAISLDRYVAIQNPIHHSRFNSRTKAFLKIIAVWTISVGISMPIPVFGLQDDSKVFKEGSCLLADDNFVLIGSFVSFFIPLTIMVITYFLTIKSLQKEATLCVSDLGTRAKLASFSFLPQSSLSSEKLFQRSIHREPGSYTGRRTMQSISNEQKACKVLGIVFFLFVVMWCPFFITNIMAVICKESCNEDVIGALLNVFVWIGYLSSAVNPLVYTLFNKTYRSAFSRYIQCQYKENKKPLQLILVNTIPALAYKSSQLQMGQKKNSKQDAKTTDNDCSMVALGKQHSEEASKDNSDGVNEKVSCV
Put plainly: Serotonin 5-HT2A radioligand binding ([3H]Ketanserin). The note with it: compound at 1 μM; read-out: Serotonin (1 μM) 5-HT2A, percent inhibition of specific binding. The procedure:
To evaluate in radioligand binding assays the activity of compounds of the invention, human recombinant serotonin (5-Hydroxytryptamine) 5-HT2A receptor expressed in Chinese hamster ovary (CHO-K1) cells (Bonhaus, D. W. et al. Br. J. Pharmacol. 115:622, 1995; Saucier, C. and Albert, P. R., J. Neurochem. 68:1998, 1997) in a 50 mM Tris-HCl buffer, pH 7.4, was used. Compounds of the invention were incubated with 0.5 nM [^3H]Ketanserin for 60 min. at 25° C. Non-specific binding was estimated in the presence of 1 μM Mianserin. Receptor proteins were filtered and washed, the filters were then counted to determine [^3H]Ketanserin specifically bound. Compounds were screened at 1 μM or lower, using 1% DMSO as vehicle. Biochemical assay results are presented as the percent inhibition of specific binding in Table 6.

The target in test [7] is T5, human recombinant serotonin (5-Hydroxytryptamine) 5-HT2C receptor (Homo sapiens, UniProt P28335).
T5 construct: expressed in transfected cells; host or cells: CHO-K1 cells
T5 sequence (P28335 33-458): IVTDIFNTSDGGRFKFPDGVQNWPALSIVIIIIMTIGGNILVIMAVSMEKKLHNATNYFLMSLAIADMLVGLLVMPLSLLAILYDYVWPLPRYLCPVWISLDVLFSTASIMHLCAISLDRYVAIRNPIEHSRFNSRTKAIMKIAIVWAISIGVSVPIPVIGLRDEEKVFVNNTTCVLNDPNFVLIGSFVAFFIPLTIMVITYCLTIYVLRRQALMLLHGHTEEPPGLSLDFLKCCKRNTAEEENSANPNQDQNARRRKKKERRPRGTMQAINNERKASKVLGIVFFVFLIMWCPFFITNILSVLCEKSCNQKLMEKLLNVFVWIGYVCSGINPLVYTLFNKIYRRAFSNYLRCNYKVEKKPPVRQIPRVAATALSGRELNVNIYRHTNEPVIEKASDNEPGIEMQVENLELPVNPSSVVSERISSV
Description: Serotonin 5-HT2C radioligand binding ([3H]Mesulergine). The following applies: compound at 1 μM; read-out: Serotonin (1 μM) 5-HT2C, percent inhibition of specific binding. The procedure: To evaluate in radioligand binding assays the activity of compounds of the invention, human recombinant serotonin (5-Hydroxytryptamine) 5-HT2C receptor expressed in Chinese hamster ovary (CHO-K1) cells (Wolf, W. A. and Schutz, J. S., J. Neurochem. 69:1449, 1997) in a modified Tris-HCl buffer (50 mM Tris-HCl, pH 7.4, 0.1% Ascorbic Acid, 10 μM Pargyline) was used. Compounds of the invention were incubated with 1 nM [^3H]Mesulergine for 60 min. at 25° C. Non-specific binding was estimated in the presence of 1 μM Mianserin. Receptor proteins were filtered and washed, the filters were then counted to determine [^3H]Mesulergine specifically bound. Compounds were screened at 1 μM or lower, using 1% DMSO as vehicle. Biochemical assay results are presented as the percent inhibition of specific binding in Table 6.

For test [8], the target named is T6, human recombinant serotonin (5-Hydroxytryptamine) 5-HT6 receptor (Homo sapiens, UniProt P50406).
T6 construct: expressed in transfected cells; host or cells: human HeLa cells
T6 sequence (P50406 whole entry): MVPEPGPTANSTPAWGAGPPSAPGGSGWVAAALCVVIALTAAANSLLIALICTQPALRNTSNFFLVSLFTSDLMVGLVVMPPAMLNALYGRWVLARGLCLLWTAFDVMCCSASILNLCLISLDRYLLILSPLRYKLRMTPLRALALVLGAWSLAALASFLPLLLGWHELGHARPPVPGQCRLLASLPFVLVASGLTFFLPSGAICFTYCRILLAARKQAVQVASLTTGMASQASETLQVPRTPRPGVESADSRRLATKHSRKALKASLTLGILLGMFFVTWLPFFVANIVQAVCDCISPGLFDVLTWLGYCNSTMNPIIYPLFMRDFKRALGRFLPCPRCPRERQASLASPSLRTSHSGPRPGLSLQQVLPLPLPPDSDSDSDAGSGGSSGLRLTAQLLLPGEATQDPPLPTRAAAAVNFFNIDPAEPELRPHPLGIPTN
Description: Serotonin 5-HT6 radioligand binding ([3H]LSD). The following applies: compound at 1 μM; read-out: Serotonin (1 μM) 5-HT6, percent inhibition of specific binding. The procedure:
To evaluate in radioligand binding assays the activity of compounds of the invention, human recombinant serotonin (5-Hydroxytryptamine) 5-HT6 receptor expressed in human HeLa cells (Monsma, F. J. Jr. et al., Mol. Pharmacol. 43:320, 1993) in a modified Tris-HCl buffer (50 mM Tris-HCl, pH 7.4, 150 mM NaCl, 2 mM Ascorbic Acid, 0.001% BSA) was used. Compounds of the invention were incubated with 1.5 nM [3H]Lysergic acid diethylamide (LSD) for 120 min. at 37° C. Non-specific binding was estimated in the presence of 5 μM Serotonin (5-HT). Receptor proteins were filtered and washed, the filters were then counted to determine [3H]LSD specifically bound. Compounds were screened at 1 μM or lower, using 1% DMSO as vehicle. Biochemical assay results are presented as the percent inhibition of specific binding in Table 6.

Setting [9] is: after treatment with the cell toxin ionomycin.

T3 sequence (P14416 whole entry): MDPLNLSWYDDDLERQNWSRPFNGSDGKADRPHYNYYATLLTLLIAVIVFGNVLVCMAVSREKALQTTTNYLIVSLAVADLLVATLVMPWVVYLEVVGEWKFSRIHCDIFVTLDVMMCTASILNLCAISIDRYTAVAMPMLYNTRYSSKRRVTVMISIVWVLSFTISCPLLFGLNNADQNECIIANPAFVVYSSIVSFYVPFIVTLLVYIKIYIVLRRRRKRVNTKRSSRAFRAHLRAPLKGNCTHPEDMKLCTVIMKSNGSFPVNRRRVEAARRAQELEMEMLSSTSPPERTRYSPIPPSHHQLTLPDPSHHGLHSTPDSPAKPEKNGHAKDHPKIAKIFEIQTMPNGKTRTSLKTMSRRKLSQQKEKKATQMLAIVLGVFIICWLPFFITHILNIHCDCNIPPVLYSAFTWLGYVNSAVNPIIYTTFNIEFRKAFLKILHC

As for `Cc1ccc2c(c1)c1c(n2CCc2ccc(C)nc2)CCN(C)C1` [Dimebon, dimebon], the “death of brain cells (neurons)” value with brain cells (neurons) is reported as “inhibit the death of brain cells (neurons)”. Besides, in test [1] (setting [9]), the mitochondrial function entry is given as “improved mitochondrial function” and the “number of surviving cells” value is given as “increased the number of surviving cells”. The “mitochondrial function of cells” value in [1] (setting of cellular stress) is “improve the mitochondrial function of cells in the setting of cellular stress with very high potency”. Besides, the “neurite outgrowth and neurogenesis” value in test [2] was “promote neurite outgrowth and neurogenesis”.

As usually defined, the inhibition is the relative decrease from the control value, in per cent. Regarding `C/C(=C/n1c2c(c3cc(Cl)ccc31)CCN(C)CC2)c1ccccc1Cl` [Compound No. 244, (Z)-9-chloro-6-(2-(2-chlorophenyl)prop-1-enyl)-3-methyl-1,2,3,4,5,6-hexahydroazepino[4,5-b]indole], the inhibition at 1 µM came out at 102% in [3]; 99% in [4]; 43% in test [5]; 100% in test [6]; 101% in test [7]; 103% in test [8].

Consider `C/C(=C\n1c2c(c3cc(C)ccc31)CCN(C)CC2)c1ccc(F)c(F)c1` [Compound No. 177, (E)-6-(2-(3,4-difluorophenyl)prop-1-enyl)-1,2,3,4,5,6-hexahydro-3,9-dimethylazepino[4,5-b]indole], for which the inhibition at 1 µM in test [3] was determined as 93%; in test [4], 92%; in test [5], 25%; in [6], 98%; in test [7], 99%; in test [8], 96%.

Regarding `C/C(=C\n1c2c(c3cc(C)ccc31)CCN(C)CC2)c1ccccc1F` [Compound No. 241, (E)-6-(2-(2-fluorophenyl)prop-1-enyl)-3,9-dimethyl-1,2,3,4,5,6-hexahydroazepino[4,5-b]indole], the inhibition at 1 µM in [3] came to 98%; in [4], 93%; in test [5], 37%; in [6] it was 100%; in test [7], 97%; in [8], 100%.

For `C/C(=C\n1c2c(c3cc(C)ccc31)CCN(C)CC2)c1cccnc1` [Compound No. 247, (E)-3,9-dimethyl-6-(2-(pyridin-3-yl)prop-1-enyl)-1,2,3,4,5,6-hexahydroazepino[4,5-b]indole], the inhibition at 1 µM in test [3] is 82%; in test [4] it was 36%; in test [5] it was 8%; in test [6], 98%; in [7], 99%; in [8], 74%.
